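At the GI50, growth is halved. TGI: concentration producing complete growth inhibition.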
Assays:
Assay in all cases: inhibition of tumour cell growth, NCI panel, 384-well format; in the data active = GI50 below about 0.43 µM; inactive = the rest
786-0 renal = test system: 786-0 renal
A498 renal = test system: A498 renal
A549 NSCLC = test system: A549 NSCLC
ACHN renal = test system: ACHN renal
BT-549 breast = test system: BT-549 breast
CAKI-1 renal = test system: CAKI-1 renal
CCRF-CEM leukemia = test system: CCRF-CEM leukemia
COLO 205 colon = test system: COLO 205 colon
DU-145 prostate = test system: DU-145 prostate
EKVX NSCLC = test system: EKVX NSCLC
HCC-2998 colon = test system: HCC-2998 colon
HCT-116 colon = test system: HCT-116 colon
HCT-15 colon = test system: HCT-15 colon
HL-60(TB) leukemia = test system: HL-60(TB) leukemia
HOP-62 NSCLC = test system: HOP-62 NSCLC
HOP-92 NSCLC = test system: HOP-92 NSCLC
HS 578T breast = test system: HS 578T breast
HT29 colon = test system: HT29 colon
IGROV1 ovarian = test system: IGROV1 ovarian
K-562 leukemia = test system: K-562 leukemia
KM12 colon = test system: KM12 colon
LOX IMVI melanoma = test system: LOX IMVI melanoma
M14 melanoma = test system: M14 melanoma
MALME-3M melanoma = test system: MALME-3M melanoma
MCF7 breast = test system: MCF7 breast
MDA-MB-231 breast = test system: MDA-MB-231 breast
MDA-MB-435 melanoma = test system: MDA-MB-435 melanoma
MDA-MB-468 breast = test system: MDA-MB-468 breast
MOLT-4 leukemia = test system: MOLT-4 leukemia
NCI-H226 lung = test system: NCI-H226 lung
NCI-H23 lung = test system: NCI-H23 lung
NCI-H322M lung = test system: NCI-H322M lung
NCI-H460 NSCLC = test system: NCI-H460 NSCLC
NCI-H522 lung = test system: NCI-H522 lung
NCI/ADR-RES ovarian = test system: NCI/ADR-RES ovarian
OVCAR-3 ovarian = test system: OVCAR-3 ovarian
OVCAR-4 ovarian = test system: OVCAR-4 ovarian
OVCAR-5 ovarian = test system: OVCAR-5 ovarian
OVCAR-8 ovarian = test system: OVCAR-8 ovarian
RPMI-8226 leukemia = test system: RPMI-8226 leukemia
RXF 393 renal = test system: RXF 393 renal
SF-268 CNS = test system: SF-268 CNS
SF-539 CNS = test system: SF-539 CNS
SK-MEL-28 melanoma = test system: SK-MEL-28 melanoma
SK-MEL-5 melanoma = test system: SK-MEL-5 melanoma
SK-OV-3 ovarian = test system: SK-OV-3 ovarian
SN12C renal = test system: SN12C renal
SNB-19 CNS = test system: SNB-19 CNS
SNB-75 CNS = test system: SNB-75 CNS
SW-620 colon = test system: SW-620 colon
T-47D breast = test system: T-47D breast
TK-10 renal = test system: TK-10 renal
U251 glioblastoma = test system: U251 glioblastoma
UACC-257 melanoma = test system: UACC-257 melanoma
UACC-62 melanoma = test system: UACC-62 melanoma
UO-31 renal = test system: UO-31 renal

CCn1c(CO)nn(-c2cc(O[C@@H](C)C(F)(F)F)c(C(=O)Nc3c(F)cccc3Cl)cc2F)c1=O
14.7 µM: TGI (NCI-H460 NSCLC)
28.8 µM: TGI (UO-31 renal)
70.2 µM: TGI (UACC-62 melanoma)
22.6 µM: TGI (MDA-MB-468 breast)
inactive: GI50 (A498 renal) 13.5 µM | GI50 (EKVX NSCLC) 63.4 µM | GI50 (HCC-2998 colon) 18.6 µM | GI50 (HOP-62 NSCLC) 6.85 µM | GI50 (HS 578T breast) 15.2 µM | GI50 (IGROV1 ovarian) 2.22 µM | GI50 (NCI-H226 lung) 17.6 µM | GI50 (NCI-H322M lung) 9.92 µM | GI50 (OVCAR-3 ovarian) 20.8 µM | GI50 (OVCAR-4 ovarian) 54.9 µM | GI50 (SF-539 CNS) 16.1 µM | GI50 (SK-OV-3 ovarian) 22.7 µM | GI50 (SNB-19 CNS) 17.5 µM | GI50 (SNB-75 CNS) 13.4 µM | GI50 (T-47D breast) 7.65 µM | GI50 (UACC-257 melanoma) 11.2 µM
19.9 µM: TGI (SK-MEL-28 melanoma)
62.6 µM: TGI (HT29 colon)
20.4 µM: TGI (SW-620 colon)
30.7 µM: TGI (U251 glioblastoma)
88 µM: TGI (NCI/ADR-RES ovarian)
58.2 µM: TGI (T-47D breast)
62.7 µM: TGI (M14 melanoma)
active: GI50 ([…]-0 renal) < 0.01 µM | GI50 (A549 NSCLC) < 0.01 µM | GI50 (ACHN renal) < 0.01 µM | GI50 (BT-549 breast) < 0.01 µM | GI50 (CAKI-1 renal) < 0.01 µM | GI50 (CCRF-CEM leukemia) < 0.01 µM | GI50 (COLO 205 colon) < 0.01 µM | GI50 (DU-145 prostate) < 0.01 µM | GI50 (HCT-116 colon) < 0.01 µM | GI50 (HCT-15 colon) < 0.01 µM | GI50 (HL-60(TB) leukemia) < 0.01 µM | GI50 (HOP-92 NSCLC) < 0.01 µM | GI50 (HT29 colon) < 0.01 µM | GI50 (K-562 leukemia) < 0.01 µM | GI50 (KM12 colon) < 0.01 µM | GI50 (LOX IMVI melanoma) < 0.01 µM | GI50 (M14 melanoma) < 0.01 µM | GI50 (MALME-3M melanoma) < 0.01 µM | GI50 (MCF7 breast) < 0.01 µM | GI50 (MDA-MB-231 breast) < 0.01 µM | GI50 (MDA-MB-435 melanoma) < 0.01 µM | GI50 (MDA-MB-468 breast) < 0.01 µM | GI50 (MOLT-4 leukemia) < 0.01 µM | GI50 (NCI-H23 lung) < 0.01 µM | GI50 (NCI-H460 NSCLC) < 0.01 µM | GI50 (NCI-H522 lung) < 0.01 µM | GI50 (NCI/ADR-RES ovarian) < 0.01 µM | GI50 (OVCAR-5 ovarian) < 0.01 µM | GI50 (OVCAR-8 ovarian) < 0.01 µM | GI50 (RPMI-8226 leukemia) < 0.01 µM | GI50 (RXF 393 renal) < 0.01 µM | GI50 (SF-268 CNS) < 0.01 µM | GI50 (SK-MEL-28 melanoma) < 0.01 µM | GI50 (SK-MEL-5 melanoma) < 0.01 µM | GI50 (SN12C renal) < 0.01 µM | GI50 (SW-620 colon) < 0.01 µM | GI50 (TK-10 renal) < 0.01 µM | GI50 (U251 glioblastoma) < 0.01 µM | GI50 (UACC-62 melanoma) < 0.01 µM | GI50 (UO-31 renal) < 0.01 µM
> 100 µM: TGI (A498 renal) | TGI (A549 NSCLC) | TGI (ACHN renal) | TGI (BT-549 breast) | TGI (CAKI-1 renal) | TGI (COLO 205 colon) | TGI (DU-145 prostate) | TGI (EKVX NSCLC) | TGI (HCC-2998 colon) | TGI (HCT-116 colon) | TGI (HCT-15 colon) | TGI (HOP-62 NSCLC) | TGI (HOP-92 NSCLC) | TGI (HS 578T breast) | TGI (IGROV1 ovarian) | TGI (K-562 leukemia) | TGI (KM12 colon) | TGI (MALME-3M melanoma) | TGI (MDA-MB-231 breast) | TGI (MDA-MB-435 melanoma) | TGI (NCI-H226 lung) | TGI (NCI-H23 lung) | TGI (NCI-H322M lung) | TGI (OVCAR-3 ovarian) | TGI (OVCAR-4 ovarian) | TGI (OVCAR-5 ovarian) | TGI (OVCAR-8 ovarian) | TGI (SF-539 CNS) | TGI (SK-OV-3 ovarian) | TGI (SN12C renal) | TGI (SNB-19 CNS) | TGI (TK-10 renal) | TGI (UACC-257 melanoma)
91.3 µM: TGI (MCF7 breast)
84.5 µM: TGI (NCI-H522 lung)
79.2 µM: TGI (SNB-75 CNS)
< 0.01 µM: TGI (HL-60(TB) leukemia) | TGI (LOX IMVI melanoma) | TGI (MOLT-4 leukemia) | TGI (RPMI-8226 leukemia) | TGI (SF-268 CNS)
32.5 µM: TGI (786-0 renal)
12.3 µM: TGI (RXF 393 renal)
43 µM: TGI (CCRF-CEM leukemia)
18.8 µM: TGI (SK-MEL-5 melanoma)

From PubChem BioAssay (NCI)
